In patent US20070026408A1, “Materials and methods for analysis of atp-binding cassette transporter gene expression” (priority 2003, published 2007):
Where a name gives a salt, the structure may show the parent alone.

Experiments:
Assay type in all cases: cell-based, human
Details in all cases: HepG2, doxorubicin HCl 25 nM, standard 11
[1] = tested on: abcG5; assay: DT1 microarray drug screening, drug-treated HepG2: abcG5
Procedure: (§1) The labelled cDNA target preparation was thawed and the 150 μl added to 850 ul hybridisation buffer (500 mM sodium Phosphate pH 6.0, 1% SDS, 1% BSA, 1 mM EDTA) in a 1.5 ml microtube and heated at 95° C. for 10 min.

[2] = tested on: abcA5; assay: DT1 microarray drug screening, drug-treated HepG2: abcA5
Procedure: as §1

[3] = tested on: abcA3; assay: DT1 microarray drug screening, drug-treated HepG2: abcA3
Procedure: as §1

[4] = tested on: abcG2; assay: DT1 microarray drug screening, drug-treated HepG2: abcG2
Procedure: as §1

[5] = tested on: abcB1; assay: DT1 microarray drug screening, drug-treated HepG2: abcB1
Procedure: as §1

[6] = tested on: abcC7; assay: DT1 microarray drug screening, drug-treated HepG2: abcC7
Procedure: as §1

[7] = tested on: abcB7; assay: DT1 microarray drug screening, drug-treated HepG2: abcB7
Procedure: as §1

[8] = tested on: abcD4; assay: DT1 microarray drug screening, drug-treated HepG2: abcD4
Procedure: as §1

[9] = tested on: abcE1; assay: DT1 microarray drug screening, drug-treated HepG2: abcE1
Procedure: as §1

[10] = tested on: abcD2; assay: DT1 microarray drug screening, drug-treated HepG2: abcD2
Procedure: as §1

[11] = tested on: abcA7; assay: DT1 microarray drug screening, drug-treated HepG2: abcA7
Procedure: as §1

[12] = tested on: abcC5; assay: DT1 microarray drug screening, drug-treated HepG2: abcC5
Procedure: as §1

[13] = tested on: abcA2; assay: DT1 microarray drug screening, drug-treated HepG2: abcA2
Procedure: as §1

[14] = tested on: abcC4; assay: DT1 microarray drug screening, drug-treated HepG2: abcC4
Procedure: as §1

[15] = tested on: abcB11; assay: DT1 microarray drug screening, drug-treated HepG2: abcB11
Procedure: as §1

[16] = tested on: abcC2; assay: DT1 microarray drug screening, drug-treated HepG2: abcC2
Procedure: as §1

[17] = tested on: abcC9; assay: DT1 microarray drug screening, drug-treated HepG2: abcC9
Procedure: as §1

[18] = tested on: abcC11; assay: DT1 microarray drug screening, drug-treated HepG2: abcC11
Procedure: as §1

[19] = tested on: abcA10; assay: DT1 microarray drug screening, drug-treated HepG2: abcA10
Procedure: as §1

[20] = tested on: abcA12; assay: DT1 microarray drug screening, drug-treated HepG2: abcA12
Procedure: as §1

[21] = tested on: abcA6; assay: DT1 microarray drug screening, drug-treated HepG2: abcA6
Procedure: as §1

[22] = tested on: abcB4; assay: DT1 microarray drug screening, drug-treated HepG2: abcB4
Procedure: as §1

[23] = tested on: abcB6; assay: DT1 microarray drug screening, drug-treated HepG2: abcB6
Procedure: as §1

[24] = tested on: abcA9; assay: DT1 microarray drug screening, drug-treated HepG2: abcA9
Procedure: as §1

COc1cccc2c1C(=O)c1c(O)c3c(c(O)c1C2=O)C[C@@](O)(C(=O)CO)C[C@@H]3O[C@H]1C[C@H](N)[C@H](O)[C@H](C)O1 [dox, doxorubicin HCl]
relative level of abcG5 gene expression ([1]; 4 h): 1.764
relative level of abcG5 gene expression ([1]; 8 h): 1.752
relative level of abcA5 gene expression ([2]; 2 h): 3.302
relative level of abcA5 gene expression ([2]; 4 h): 2.021
relative level of abcA5 gene expression ([2]; 8 h): 2.451
relative level of abcA3 gene expression ([3]; 2 h): 8.071
relative level of abcA3 gene expression ([3]; 4 h): 4.291
relative level of abcA3 gene expression ([3]; 8 h): 5.179
relative level of abcG2 gene expression ([4]; 2 h): 2.989
relative level of abcG2 gene expression ([4]; 4 h): 2.137
relative level of abcG2 gene expression ([4]; 8 h): 2.08
relative level of abcB1 gene expression ([5]; 2 h): 6.735
relative level of abcB1 gene expression ([5]; 4 h): 3.865
relative level of abcB1 gene expression ([5]; 8 h): 4.759
relative level of abcC7 gene expression ([6]; 2 h): 7.481
relative level of abcC7 gene expression ([6]; 4 h): 4.5794
relative level of abcC7 gene expression ([6]; 8 h): 5.093
relative level of abcB7 gene expression ([7]; 2 h): 0.2622
relative level of abcB7 gene expression ([7]; 4 h): 0.1619
relative level of abcB7 gene expression ([7]; 8 h): 0.1766
relative level of abcD4 gene expression ([8]; 2 h): 4.361
relative level of abcD4 gene expression ([8]; 4 h): 3.103
relative level of abcD4 gene expression ([8]; 8 h): 3.194
relative level of abcE1 gene expression ([9]; 2 h): 4.155
relative level of abcE1 gene expression ([9]; 4 h): 2.794
relative level of abcE1 gene expression ([9]; 8 h): 3.088
relative level of abcD2 gene expression ([10]; 2 h): 2.503
relative level of abcD2 gene expression ([10]; 4 h): 2.516
relative level of abcD2 gene expression ([10]; 8 h): 2.409
relative level of abcA7 gene expression ([11]; 2 h): 1.842
relative level of abcA7 gene expression ([11]; 4 h): 0.933
relative level of abcA7 gene expression ([11]; 8 h): 0.9351
relative level of abcC5 gene expression ([12]; 2 h): 10.51
relative level of abcC5 gene expression ([12]; 4 h): 6.29
relative level of abcC5 gene expression ([12]; 8 h): 6.522
relative level of abcA2 gene expression ([13]; 2 h): 6.224
relative level of abcA2 gene expression ([13]; 4 h): 2.947
relative level of abcA2 gene expression ([13]; 8 h): 4.022
relative level of abcC4 gene expression ([14]; 2 h): 2.612
relative level of abcC4 gene expression ([14]; 4 h): 2.09
relative level of abcC4 gene expression ([14]; 8 h): 2.286
relative level of abcB11 gene expression ([15]; 2 h): 5.31
relative level of abcB11 gene expression ([15]; 4 h): 3.404
relative level of abcB11 gene expression ([15]; 8 h): 3.888
relative level of abcC2 gene expression ([16]; 2 h): 0.6141
relative level of abcC2 gene expression ([16]; 4 h): 0.3603
relative level of abcC2 gene expression ([16]; 8 h): 0.3548
relative level of abcC9 gene expression ([17]; 2 h): 5.598
relative level of abcC9 gene expression ([17]; 4 h): 3.678
relative level of abcC9 gene expression ([17]; 8 h): 3.982
relative level of abcC11 gene expression ([18]; 2 h): 7.608
relative level of abcC11 gene expression ([18]; 4 h): 4.384
relative level of abcC11 gene expression ([18]; 8 h): 5.056
relative level of abcA10 gene expression ([19]; 2 h): 4.82
relative level of abcA10 gene expression ([19]; 4 h): 3.419
relative level of abcA10 gene expression ([19]; 8 h): 3.793
relative level of abcA12 gene expression ([20]; 2 h): 5.829
relative level of abcA12 gene expression ([20]; 4 h): 3.419
relative level of abcA12 gene expression ([20]; 8 h): 4.195
relative level of abcA6 gene expression ([21]; 2 h): 6.045
relative level of abcA6 gene expression ([21]; 4 h): 3.367
relative level of abcA6 gene expression ([21]; 8 h): 4.296
relative level of abcB4 gene expression ([22]; 2 h): 9.148
relative level of abcB4 gene expression ([22]; 4 h): 5.624
relative level of abcB4 gene expression ([22]; 8 h): 6.417
relative level of abcB6 gene expression ([23]; 2 h): 5.174
relative level of abcB6 gene expression ([23]; 4 h): 3.283
relative level of abcB6 gene expression ([23]; 8 h): 3.612
relative level of abcA9 gene expression ([24]; 2 h): 7.825
relative level of abcA9 gene expression ([24]; 4 h): 4.817
relative level of abcA9 gene expression ([24]; 8 h): 5.72
